Measurements: US7135466B2 (Kirin Beer Kabushiki Kaisha, priority 1999, dated 2006)

target: T1, PDGF-Ra (Homo sapiens, UniProt P16234); test: Inhibitory activity against PDGF-Ra phosphorylation by PDGF-AA stimulation using G292; format: cell-based; settings: Pharmacological Test Example 1; > means inhibition at indicated concentration not more than 50%, < and << not less than 50%; read-out: PDGF (E) IC50
T1 construct: host or cells: G-292 human osteosarcoma cells
Method: Measurement of Inhibitory Activity Against PDGF-Ra Phosphorylation by PDGF-AA Stimulation Using G292
G-292 human osteosarcoma cells (Dainippon Pharmaceutical Co. Ltd.) were cultured in a DMEM medium (Dainippon Pharmaceutical Co. Ltd.) containing 10% FBS within an incubator containing 5% carbon dioxide until 80% confluent, and the cells were planted at 3×10^4 cells per well in 96-well flat-bottom plates in the same medium containing 0.1% FBS. After cultivation at 37° C. overnight, a solution of a test compound in dimethyl sulfoxide was added to each well, and a reaction was allowed to proceed at 37° C. for one hr.
After the reaction of the test compound, PDGF-AA (Upstate) was added to 50 ng/ml, and the cells were stimulated at 37° C. for 5 min. Thereafter, the cells were solubilized and shaken at room temperature for 20 min.
This solubilized cell solution was transferred to a 96-well plate coated with aniti-phosphotyrosine antibody PY-20, and a reaction was allowed to proceed at 4° C. overnight. Anti-PDGF-Ra (c-20) (Santa Cruz) was added as a primary antibody, and a reaction was allowed to proceed for one hr. GAR (Anti-rabbit Ig, horseradish peroxidase, Amersham) was then added as a secondary antibody, and a reaction was allowed to proceed for one hr. Color development was carried out using a color development kit for peroxidase (Sumitomo Bakelite Co., Ltd.), and the absorbance was measured at 450 nm.

T1 sequence (P16234 24-1089): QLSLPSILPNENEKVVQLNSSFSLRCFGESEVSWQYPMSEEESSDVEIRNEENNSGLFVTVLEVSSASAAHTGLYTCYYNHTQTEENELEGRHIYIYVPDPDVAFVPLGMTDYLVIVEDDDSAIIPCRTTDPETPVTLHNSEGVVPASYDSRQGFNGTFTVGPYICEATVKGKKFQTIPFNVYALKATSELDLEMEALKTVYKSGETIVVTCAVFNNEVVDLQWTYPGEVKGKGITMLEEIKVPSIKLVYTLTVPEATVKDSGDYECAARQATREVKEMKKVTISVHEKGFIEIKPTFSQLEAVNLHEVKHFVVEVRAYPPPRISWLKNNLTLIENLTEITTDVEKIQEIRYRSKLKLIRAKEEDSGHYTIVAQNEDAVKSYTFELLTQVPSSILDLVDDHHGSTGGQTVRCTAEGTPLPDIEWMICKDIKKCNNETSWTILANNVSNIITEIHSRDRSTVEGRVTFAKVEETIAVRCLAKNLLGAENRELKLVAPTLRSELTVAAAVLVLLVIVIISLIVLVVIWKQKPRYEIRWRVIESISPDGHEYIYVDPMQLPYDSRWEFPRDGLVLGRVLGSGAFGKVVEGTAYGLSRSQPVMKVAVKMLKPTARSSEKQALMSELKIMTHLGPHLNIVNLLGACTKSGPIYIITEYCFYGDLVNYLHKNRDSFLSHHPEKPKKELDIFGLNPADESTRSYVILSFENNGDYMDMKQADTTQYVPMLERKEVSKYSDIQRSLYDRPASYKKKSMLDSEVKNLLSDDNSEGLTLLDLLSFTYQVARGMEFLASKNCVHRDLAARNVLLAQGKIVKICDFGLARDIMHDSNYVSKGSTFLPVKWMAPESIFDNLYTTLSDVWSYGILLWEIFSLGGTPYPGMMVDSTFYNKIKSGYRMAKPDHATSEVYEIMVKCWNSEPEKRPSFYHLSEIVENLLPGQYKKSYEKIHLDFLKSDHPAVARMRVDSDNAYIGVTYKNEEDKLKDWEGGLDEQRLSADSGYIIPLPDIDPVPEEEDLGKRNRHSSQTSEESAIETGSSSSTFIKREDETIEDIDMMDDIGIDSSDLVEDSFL

| Molecule | IC50 |
| --- | --- |
| COc1cc2ncnc(Oc3ccc(NC(=O)OC(C)c4ccc(F)cc4)c(Cl)c3)c2cc1OC (stereo not shown) [Example 106, 1-(4-Fluorophenyl)ethyl N-{2-chloro-4-[(6,7-dimethoxy-4-quinazolinyl)oxy]phenyl}carbamate] | 12 nM |
| COc1cc2nccc(Oc3cc(C)c(NC(=O)Sc4ccc(Cl)cc4C)cc3C)c2cc1OC [Example 178, 4-Chloro-2-methylphenyl{4-[(6,7-dimethoxy-4-quinolyl)oxy]-2,5-dimethylanilino}methanethioate] | > 100 nM |
| COc1cc2ncnc(Oc3ccc(NC(=O)Sc4ccc(Cl)cc4C)cc3)c2cc1OC [Example 179, 4-Chloro-2-methylphenyl{4-[(6,7-dimethoxy-4-quinazolinyl)oxy]anilino}methanethioate] | 70 nM |
| COc1cc2nccc(Oc3ccc(NC(=O)OC(C)c4cccc(OC(F)(F)F)c4)cc3)c2cc1OC (stereo not shown) [Example 180, 1-[3-(Trifluoromethoxy)phenyl]ethyl N-{4-[(6,7-dimethoxy-4-quinolyl)oxy]phenol}carbamate] | 63 nM |
| COc1cc2nccc(Oc3cc(C)c(NC(=O)OC(C)c4cccc(OC(F)(F)F)c4)cc3C)c2cc1OC (stereo not shown) [Example 182, 1-[3-(Trifluoromethoxy)phenyl]ethyl N-{4-[(6,7-dimethoxy-4-quinolyl)oxy]-2,5-dimethylphenyl}carbamate] | > 100 nM |
| CCCC(OC(=O)Nc1ccc(Oc2ccnc3cc(OC)c(OC)cc23)c(C)c1C)c1ccccc1 (stereo not shown) [Example 185, 1-Phenylbutyl N-{4-[(6,7-dimethoxy-4-quinolyl)oxy]-2,3-dimethylphenyl}carbamate] | 46 nM |
| CCCC(OC(=O)Nc1cc(C)c(Oc2ccnc3cc(OC)c(OC)cc23)cc1C)c1ccccc1 (stereo not shown) [Example 186, 1-Phenylbutyl N-{4-[(6,7-dimethoxy-4-quinolyl)oxy]-2,5-dimethylphenyl}carbamate] | 63 nM |
| COc1cc2nccc(Oc3ccc(NC(=O)OCCN(C)C)c(C)c3C)c2cc1OC [Example 189, 2-(Dimethylamino)ethyl N-{4-[(6,7-dimethoxy-4-quinolyl)oxy]-2,3-dimethylphenyl}carbamate] | 57 nM |
| COc1cc2nccc(Oc3cc(C)c(NC(=O)OCCN(C)C)cc3C)c2cc1OC [Example 190, 2-(Dimethylamino)ethyl N-{4-[(6,7-dimethoxy-4-quinolyl)oxy]-2,5-dimethylphenyl}carbamate] | > 100 nM |
| COc1cc2nccc(Oc3ccc(NC(=O)OC(c4ccccc4)C(C)C)cc3)c2cc1OC (stereo not shown) [Example 195, 2-Methyl-1-phenylpropyl N-{4-[(6,7-dimethoxy-4-quinolyl)oxy]phenyl}carbamate] | 66 nM |
| COc1cc2nccc(Oc3cc(C)c(NC(=O)OC(c4ccccc4)C(C)C)cc3C)c2cc1OC (stereo not shown) [Example 197, 2-Methyl-1-phenylpropyl N-{4-[(6,7-dimethoxy-4-quinolyl)oxy]-2,5-dimethylphenyl}carbamate] | 93 nM |

Further lines, results first:

| IC50 | Molecule |
| --- | --- |
| > 100 nM | 1-[3-(Trifluoromethoxy)phenyl]ethyl N-{4-[(6,7-dimethoxy-4-quinolyl)oxy]-2,3-dimethylphenyl}carbamate [Example 181] |
| 56 nM | 4-(Dimethylamino)butyl N-{4-[(6,7-dimethoxy-4-quinolyl)oxy]phenyl}carbamate [Example 192] |
| 25 nM | COc1cc2ncnc(Oc3ccc(NC(=O)OCCCSc4ccc(C(C)(C)C)cc4)cc3)c2cc1OC [Example 75, 3-{[4-(Tert-butyl)phenyl]sulfanyl}propyl N-{4-[(6,7-dimethoxy-4-quinazolinyl)oxy]phenyl}carbamate] |
| 31 nM | COc1cc2ncnc(Oc3ccc(NC(=O)OC(C)c4ccccc4Br)c(Cl)c3)c2cc1OC (stereo not shown) [Example 116, 1-(2-Bromophenyl)ethyl N-{2-chloro-4-[(6,7-dimethoxy-4-quinazolinyl)oxy]phenyl}carbamate] |
| 57 nM | COc1cc2nccc(Oc3ccc(NC(=O)OCCCCN(C)C)c(C)c3C)c2cc1OC [Example 193, 4-(Dimethylamino)butyl N-{4-[(6,7-dimethoxy-4-quinolyl)oxy]-2,3-dimethylphenyl}carbamate] |
| 49 nM | COc1cc2nccc(Oc3ccc(NC(=O)OC(c4ccccc4)C(C)C)c(C)c3C)c2cc1OC (stereo not shown) [Example 196, 2-Methyl-1-phenylpropyl N-{4-[(6,7-dimethoxy-4-quinolyl)oxy]-2,3-dimethylphenyl}carbamate] |

target: T2, c-kit (Homo sapiens, UniProt P10721); test: Inhibitory activity against c-kit autophosphorylation (MO7e cells, h-SCF); format: cell-based; settings: MO7e cells, h-SCF stimulation; read-out: c-kit IC50
T2 construct: MO7e (human megakaryocytic leukemia cell line) which had been arrested for 20 hr; endogenous in cells; host or cells: MO7e human megakaryocytic leukemia cell line
Outline: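 First, human megakaryocytic leukemia MO7e cells arrested 20 hr receive compound for one hour. Second, SCF stimulation (50 ng/ml) runs 5 min, after which cells are solubilized. Third, tyrosine-phosphorylated c-kit in the lysate is quantified by sandwich ELISA with absorbance at 450 nm.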

T2 sequence (P10721 26-976): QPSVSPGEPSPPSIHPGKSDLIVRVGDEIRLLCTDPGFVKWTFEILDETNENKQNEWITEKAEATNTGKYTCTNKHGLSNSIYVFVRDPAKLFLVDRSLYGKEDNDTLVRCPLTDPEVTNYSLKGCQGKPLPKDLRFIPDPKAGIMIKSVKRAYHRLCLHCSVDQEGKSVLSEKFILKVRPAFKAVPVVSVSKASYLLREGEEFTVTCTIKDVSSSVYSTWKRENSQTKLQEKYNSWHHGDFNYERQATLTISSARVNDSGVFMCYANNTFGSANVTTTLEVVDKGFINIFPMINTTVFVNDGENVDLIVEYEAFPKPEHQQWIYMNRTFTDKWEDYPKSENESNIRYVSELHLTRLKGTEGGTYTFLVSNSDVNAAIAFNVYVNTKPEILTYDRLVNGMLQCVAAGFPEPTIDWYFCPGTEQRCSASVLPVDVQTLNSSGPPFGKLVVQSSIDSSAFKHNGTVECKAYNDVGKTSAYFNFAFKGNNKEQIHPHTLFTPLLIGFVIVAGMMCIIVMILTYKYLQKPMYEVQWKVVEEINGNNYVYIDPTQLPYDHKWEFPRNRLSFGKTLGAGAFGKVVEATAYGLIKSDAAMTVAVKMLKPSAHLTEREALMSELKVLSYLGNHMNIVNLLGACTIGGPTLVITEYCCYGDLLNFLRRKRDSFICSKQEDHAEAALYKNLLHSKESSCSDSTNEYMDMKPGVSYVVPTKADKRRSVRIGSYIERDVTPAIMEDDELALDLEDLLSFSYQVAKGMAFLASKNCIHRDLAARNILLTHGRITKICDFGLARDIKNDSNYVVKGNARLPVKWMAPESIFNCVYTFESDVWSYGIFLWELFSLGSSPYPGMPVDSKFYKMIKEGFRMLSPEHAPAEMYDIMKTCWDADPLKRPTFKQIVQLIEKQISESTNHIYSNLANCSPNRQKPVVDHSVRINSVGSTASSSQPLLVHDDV

| Molecule | IC50 |
| --- | --- |
| COc1ccc(C(=O)NC(=S)Nc2ccc(Oc3ccnc4cc(OC)c(OC)cc34)c(F)c2)c(OC)c1 [Example 1113, N-(2,4-Dimethoxybenzoyl)-N′-{4-[(6,7-dimethoxy-4-quinolyl)oxy]-3-fluorophenyl}thiourea] | 785 nM |
| COc1cc2nccc(Oc3ccc(NC(=S)NC(=O)c4ccc(Cl)cc4Cl)cc3Cl)c2cc1OC [Example 1114, N-{3-Chloro-4-[(6,7-dimethoxy-4-quinolyl)oxy]phenyl}-N′-(2,4-dichlorobenzoyl)thiourea] | 674 nM |
| COc1cc2nccc(Oc3ccc(NC(=S)NC(=O)c4cc(Cl)cc(Cl)c4)cc3Cl)c2cc1OC [Example 1116, N-{3-Chloro-4-[(6,7-dimethoxy-4-quinolyl)oxy]phenyl}-N′-(3,5-dichlorobenzoyl)thiourea] | 878 nM |
| COc1cc2nccc(Oc3ccc(NC(=S)NC(=O)c4ccc(Cl)c(Cl)c4)cc3)c2cc1OC [Example 1120] | 778 nM |
| COc1cc2nccc(Oc3ccc(NC(=S)NC(=O)c4ccc(F)cc4F)c(F)c3)c2cc1OC [Example 1121, N-(2,4-Difluorobenzoyl)-N′-{4-[(6,7-dimethoxy-4-quinolyl)oxy]-2-fluorophenyl}thiourea] | < 30 nM |
| COc1cc2nccc(Oc3ccc(NC(=S)NC(=O)CCc4ccccc4C)cc3F)c2cc1OC [Example 1134, N-{4-[(6,7-Dimethoxy-4-quinolyl)oxy]-3-fluorophenyl}-N′-[3-(2-methylphenyl)propanoyl]thiourea] | 169 nM |
| COc1cc2nccc(Oc3ccc(NC(=S)NC(=O)c4ccc5c(c4)OCO5)cc3F)c2cc1OC [Example 1145, N-(1,3-Benzodioxol-5-ylcarbonyl)-N′-{4-[(6,7-dimethoxy-4-quinolyl)oxy]-3-fluorophenyl}thiourea] | 548 nM |

Other lines, results leading:

| IC50 | Molecule |
| --- | --- |
| 113 nM | COc1cc2nccc(Oc3ccc(NC(=S)NC(=O)c4cccc(C)c4)cc3C)c2cc1OC [Example 1110, N-{4-[(6,7-Dimethoxy-4-quinolyl)oxy]-3-methylphenyl}-N′-(3-methylbenzoyl)thiourea] |
| 405 nM | COc1cc2nccc(Oc3ccc(NC(=S)NC(=O)c4ccc(Cl)cc4)cc3C)c2cc1OC [Example 1111, N-(4-Chlorobenzoyl)-N′-{4-[(6,7-dimethoxy-4-quinolyl)oxy]-3-methylphenyl}thiourea] |

same assay, conditions: Mo7e, figure in parentheses in −( ); at 1000 nM

| Molecule | inhibition at 1 µM |
| --- | --- |
| COc1cc2nccc(Oc3ccc(NC(=S)NC(=O)c4c(Cl)cccc4Cl)cc3F)c2cc1OC [Example 1112, N-(2,6-Dichlorobenzoyl)-N′-{4-[(6,7-dimethoxy-4-quinolyl)oxy]-3-fluorophenyl}thiourea] | 19% |
| COc1ccc(C(=O)NC(=S)Nc2ccc(Oc3ccnc4cc(OC)c(OC)cc34)c(Cl)c2)c(OC)c1 [Example 1117, N-{3-Chloro-4-[(6,7-dimethoxy-4-quinolyl)oxy]phenyl}-N′-(2,4-dimethoxybenzoyl)thiourea] | 31% |
| COc1cc2nccc(Oc3ccc(NC(=S)NC(=O)c4c(Cl)cccc4Cl)cc3)c2cc1OC [Example 1118, N-(2,6-Dichlorobenzoyl)-N′-{4-[(6,7-dimethoxy-4-quinolyl)oxy]phenyl}thiourea] | 0% |
| COc1cc2nccc(Oc3ccc(NC(=S)NC(=O)c4ccc(F)cc4F)cc3Cl)c2cc1OC [Example 1208, N-{3-Chloro-4-[(6,7-dimethoxy-4-quinolyl)oxy]phenyl}-N′-(2,4-difluorobenzoyl)thiourea] | 22% |

Now from value to molecule:

| inhibition at 1 µM | Molecule |
| --- | --- |
| 10% | COc1cc2nccc(Oc3ccc(NC(=S)NC(=O)c4c(Cl)cccc4Cl)cc3Cl)c2cc1OC [Example 1115, N-{3-Chloro-4-[(6,7-dimethoxy-4-quinolyl)oxy]phenyl}-N′-(2,6-dichlorobenzoyl)thiourea] |
| 27% | COc1ccc(C(=O)NC(=S)Nc2ccc(Oc3ccnc4cc(OC)c(OC)cc34)cc2)c(OC)c1 [Example 1119, N-(2,4-Dimethoxybenzoyl)-N′-{4-[(6,7-dimethoxy-4-quinolyl)oxy]phenyl}thiourea] |
| 16% | COc1cc2ncnc(Oc3ccc(NC(=S)NC(=O)c4ccc(Cl)cc4Cl)cc3)c2cc1OC [Example 1207, N-(2,4-Dichlorobenzoyl)-N′-{4-[(6,7-dimethoxy-4-quinazolinyl)oxy]phenyl}thiourea] |

same assay, conditions: figure in parentheses in −( ); at 1000 nM; 1 µM

| c-kit inhibition (%) at 1000 nM | Molecule |
| --- | --- |
| −(27) % | COc1cc2nccc(Oc3ccc(NC(=S)NC(=O)Cc4ccccc4)c(C)c3C)c2cc1OC [Example 1206, N-{4-[(6,7-Dimethoxy-4-quinolyl)oxy]-2,3-dimethylphenyl}-N′-(2-phenylacetyl)thiourea] |
